Measurements published in US9096560B2, “5-heterocyclylalkyl-3-hydroxy-2-phenylcyclopent-2-enones as herbicides” (Syngenta Limited, priority 2008, dated 2015).

Legend:
Assay type in all cases: in vivo
Lolium perenne (LOLPE) [1] = test: Example B pre-emergence herbicidal test, LOLPE; conditions: Lolium perenne, 312 h, rate 250 g/ha, evaluated after 13 days, 100=total damage to plant, 0=no damage to plant
Procedure, shortened: (§1)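 Pre-emergence spray one day after sowing; vehicle acetone/water (50:50), 0.5% Tween 20. Percent damage (0 = no effect, 100 = plant killed) recorded 13 days later.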

[2] = tested on: Alopecurus myosuroides (ALOMY); test: Example B pre-emergence herbicidal test, ALOMY; conditions: Alopecurus myosuroides, 312 h, rate 250 g/ha, evaluated after 13 days, 100=total damage to plant, 0=no damage to plant
Procedure, shortened: as §1

[3] = tested on: Echinochloa crus-galli (ECHCG); test: Example B pre-emergence herbicidal test, ECHCG; conditions: Echinochloa crus-galli, 312 h, rate 250 g/ha, evaluated after 13 days, 100=total damage to plant, 0=no damage to plant
Procedure, shortened: as §1

Avena fatua (AVEFA) [4] = test: Example B pre-emergence herbicidal test, AVEFA; conditions: Avena fatua, 312 h, rate 250 g/ha, evaluated after 13 days, 100=total damage to plant, 0=no damage to plant
Procedure, shortened: as §1

Lolium perenne (LOLPE) [5] = test: Example B post-emergence herbicidal test, LOLPE; conditions: Lolium perenne, 312 h, rate 250 g/ha, evaluated after 13 days, scale 0-100, read-out: Post-emergence activity LOLPE (100=total damage to plant; 0=no damage to plant)
Procedure, shortened: (§2)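 Damage was rated visually 13 days after treatment, where 100 meant total plant damage and 0 none. Treatment was a spray of aqueous solution (acetone/water 50:50, 0.5% Tween 20) applied to plants cultivated 8 days from seed under controlled glasshouse conditions.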

[6] = tested on: Alopecurus myosuroides (ALOMY); test: Example B post-emergence herbicidal test, ALOMY; conditions: Alopecurus myosuroides, 312 h, rate 250 g/ha, evaluated after 13 days, scale 0-100, read-out: Post-emergence activity ALOMY (100=total damage to plant; 0=no damage to plant)
Procedure, shortened: as §2

[7] = tested on: Echinochloa crus-galli (ECHCG); test: Example B post-emergence herbicidal test, ECHCG; conditions: Echinochloa crus-galli, 312 h, rate 250 g/ha, evaluated after 13 days, scale 0-100, read-out: Post-emergence activity ECHCG (100=total damage to plant; 0=no damage to plant)
Procedure, shortened: as §2

Avena fatua (AVEFA) [8] = test: Example B post-emergence herbicidal test, AVEFA; conditions: Avena fatua, 312 h, rate 250 g/ha, evaluated after 13 days, scale 0-100, read-out: Post-emergence activity AVEFA (100=total damage to plant; 0=no damage to plant)
Procedure, shortened: as §2

[9] = tested on: Winter Wheat variety 'Hereward'; test: Example C crop damage test on Winter Wheat, post-emergence, no safener; conditions: Triticum aestivum, 312 h, rate 250 g/ha, evaluated after 13 days, read-out: Winter Wheat (Hereward) damage (100=total damage to plant; 0=no damage to plant)
Procedure: Seeds of the Winter Wheat variety ‘Hereward’ were sown in standard soil in pots. After 8 days cultivation under controlled conditions in a glasshouse (at 24/16° C., day/night; 14 hours light; 65% humidity), the plants were sprayed with an aqueous spray solution derived from the formulation of the technical active ingredient in acetone/water (50:50) solution containing 0.5% Tween 20 (polyoxyethelyene sorbitan monolaurate, CAS RN 9005-64-5). The test plants were then grown in a glasshouse under controlled conditions in a glasshouse (at 24/16° C., day/night; 14 hours light; 65% humidity) and watered twice daily. After 13 days for pre and post-emergence, the test was evaluated (100=total damage to plant; 0=no damage to plant).

[10] = tested on: Winter Wheat variety 'Hereward' seed treated with cloquintocet mexyl; test: Example C crop damage test on Winter Wheat seed treated with safener cloquintocet mexyl, post-emergence; conditions: rate 250 g/ha, seed treated with cloquintocet mexyl 0.5 grams per kilogram of dry seed, evaluated after 13 days
Procedure: Seeds of the Winter Wheat variety ‘Hereward’ were seed treated with a wettable powder formulation of the cereal herbicide safener, cloquintocet mexyl, at a rate of 0.5 grams per kilogram of dry seed prior to the initiation of glasshouse testing. One seed was sown per 1.5 inch plastic pot into a sandy loam soil at a depth of 1 cm, 8 days prior to application of the test compounds and was watered and grown under controlled conditions in a glasshouse (at 24/16° C., day/night; 14 hours light; 65% humidity). The plants were sprayed Post-emergence with an aqueous spray solution derived from the formulation of the technical active ingredient in acetone/water (50:50) solution containing 0.5% Tween 20 (polyoxyethelyene sorbitan monolaurate, CAS RN 9005-64-5). The test plants were then grown in a glasshouse under controlled conditions in a glasshouse (at 24/16° C., day/night; 14 hours light; 65% humidity) and watered twice daily. After 13 days for pre and post-emergence, the test was evaluated (100=total damage to plant; 0=no damage to plant).

Row | SMILES | pest or weed control at 250 g/ha (Lolium perenne (LOLPE) [1]) | pest or weed control at 250 g/ha [2] | pest or weed control at 250 g/ha [3] | pest or weed control at 250 g/ha (Avena fatua (AVEFA) [4]) | pest or weed control at 250 g/ha (Lolium perenne (LOLPE) [5]) | pest or weed control at 250 g/ha [6] | pest or weed control at 250 g/ha [7] | pest or weed control at 250 g/ha (Avena fatua (AVEFA) [8]) | crop damage to winter wheat at 250 g/ha [9] | Winter Wheat (Hereward) + cloquintocet mexyl damage (100=total damage to plant; 0=no damage to plant) [10]
1 | CON1CCC(CC2CC(OC(=O)OC(C)C)=C(c3c(C)cc(C)cc3C)C2=O)CC1 (centres unmarked) [Compound P56] | 100% | 100% | 100% | 90% | 100% | 90% | 90% | 100% | 90% | 60
2 | Cc1cc(C)c(C2C(=O)C/C(=C\C3CCS(=O)(=O)CC3)C2=O)c(C)c1 (centres unmarked) [Compound T10] | 90% | 70% | 70% | 40% | 70% | 70% | 80% | 80% | 60% | 20
3 | CCc1cc(C)cc(CC)c1C1C(=O)C(CC2CCOCC2)C(CC2CCOCC2)C1=O (centres unmarked) [Compound T12] | 100% | 100% | 100% | 100% | 100% | 100% | 100% | 100% | 70% | 60
4 | Cc1cc(C)c(C2C(=O)C/C(=C\C3CCCOC3)C2=O)c(C)c1 (centres unmarked) [Compound T14] | 100% | 100% | 100% | 100% | 100% | 100% | 100% | 100% | 80% | 60
5 | Cc1cc(C)c(C2C(=O)CC(CC3CCCOC3)C2=O)c(C)c1 (centres unmarked) [Compound T16] | 100% | 100% | 100% | 80% | 100% | 100% | 100% | 100% | 80% | 20
6 | Cc1cc(C)c(C2C(=O)C/C(=C\C3CCOC3)C2=O)c(C)c1 (centres unmarked) [Compound T17] | 100% | 100% | 100% | 100% | 100% | 90% | 100% | 100% | 70% | 50
7 | Cc1cc(C)c(C2C(=O)C/C(=C\C3CCOC(C)(C)C3)C2=O)c(C)c1 (centres unmarked) [Compound T37] | 100% | 100% | 100% | 90% | 100% | 90% | 100% | 100% | 80% | 70
8 | Cc1cc(C)c(C2C(=O)CC(CC3CCOC(C)(C)C3)C2=O)c(C)c1 (centres unmarked) [Compound T39] | 100% | 100% | 100% | 100% | 100% | 90% | 100% | 100% | 80% | 70
9 | Cc1cc(C)c(C2C(=O)CC(CC3COCCO3)C2=O)c(C)c1 (centres unmarked) [Compound T40] | 100% | 100% | 100% | 80% | 100% | 80% | 100% | 90% | 60% | 10
10 | Cc1cc(C)c(C2C(=O)CC(CC3CCN(C(=O)c4ccccc4)C3)C2=O)c(C)c1 (centres unmarked) [Compound T41] | 90% | 70% | 100% | 90% | 100% | 100% | 100% | 100% | 90% | 80
11 | Cc1cc(-c2ccc(Cl)cc2)cc(C)c1C1C(=O)C/C(=C\C2CCOCC2)C1=O (centres unmarked) [Compound T62] | 100% | 80% | 100% | 70% | 90% | 90% | 100% | 100% | 80% | 70
12 | Cc1cc(-c2ccc(Cl)cc2)cc(C)c1C1C(=O)CC(CC2CCOCC2)C1=O (centres unmarked) [Compound T64] | 100% | 50% | 100% | 90% | 90% | 90% | 100% | 100% | 80% | 70
13 | Cc1cc(-c2ccccc2)cc(C)c1C1C(=O)C/C(=C\C2CCOCC2)C1=O (centres unmarked) [Compound T66] | 80% | 90% | 100% | 80% | 60% | 90% | 100% | 90% | 50% | 20
14 | Cc1cc(-c2ccccc2)cc(C)c1C1C(=O)CC(CC2CCOCC2)C1=O (centres unmarked) [Compound T67] | 100% | 90% | 100% | 90% | 100% | 90% | 100% | 100% | 70% | 30
